Legend:
I. scapularis larvae [1] = conditions: larvae parasitizing P. leucopus; Poché et al. 2021; cited from earlier work
Amblyomma americanum = experiment: Pen study: FDF efficacy against Amblyomma americanum parasitizing white-tailed deer (tick capsules, 8-day post-attachment); assay type: in vivo; conditions: Cp 13.5 ppb; the tick was A. americanum
I. scapularis larvae [2] = conditions: larvae parasitizing Peromyscus maniculatus; Pelletier et al. 2020; cited from earlier work

For `N#Cc1nn(-c2c(Cl)cc(C(F)(F)F)cc2Cl)c(N)c1S(=O)(=O)C(F)(F)F` [fipronil sulfone], the “Cp determined to control 100% I. scapularis larvae” value (I. scapularis larvae [1]) is given as ≥ 8.8 ppb and the “live female ticks collected in total from a deer having Cp at 13.5 ppb” value (Amblyomma americanum) is given as “one”.

In the case of `Cc1cc(C2=NOC(c3cc(Cl)cc(Cl)c3)(C(F)(F)F)C2)ccc1C(=O)NCC(=O)NCC(F)(F)F` (stereo not shown) [fluralaner], the “concentration in plasma required to control 94% I. scapularis larvae” value (I. scapularis larvae [2]) is listed as 4000 ppb and the “concentration in plasma required to control 97% I. scapularis larvae” value (I. scapularis larvae [2]) is listed as 13000 ppb.
